Data on 4 compounds can be found in patent US20240270809A1, “ORAL GLP RECEPTOR AGONISTS” (priority 2020, published 2024).

A short description of data set [1]: Stability of peptides in Fasted-State Simulated Gastric Fluid (FaSSGF). Type of data set: in vitro ADME. To be noted: FaSSGF with 0.1 mg/ml pepsin; t=30 mins, 37° C., pH 1.6, 0.1 mg/ml pepsin.
Description: Stability of peptides was tested in Fasted-State Simulated gastric Fluid (FaSSGF) prepared according to manufacturer's protocol (Biorelevant, art. no. FFF01). […] FaSSGF was pre-incubated for 15 min at 37° C. and spiked with test and reference item working solutions. Experiments were conducted in duplicate in a non-serial manner. The total incubation volume per replicate was 150 μl. […] All samples and calibration standards (prepared in FaSSGF) were precipitated by addition of 300 μl precipitant (ACN / 2% acetic acid / 0.2% HFBA, (precipitation regent, PR)) containing internal standards (ISTD) to 150 μl sample. After incubation for 1 h at room temperature all samples were centrifuged for 10 min at 2,200×g (room temperature).
Data set [2] can be described thus: Stability of peptides in rat intestinal fluid (ratIF). To be noted: Sprague Dawley, undiluted rat small intestinal fluid (ratIF).
Description: Peptides were tested for in vitro stability in native intestinal fluid obtained from the rat small intestine. Rat Sprague Dawley Small Intestinal Fluid (ratIF) (from Biotrend art. no. RSD-SIF-MI-30ML, undiluted) was preincubated for 15 min at 37° C. and spiked with test and reference item working solutions. Experiments were conducted in duplicate in a non-serial manner. The total incubation volume per replicate was 150 μl. […] All samples and calibration standards (prepared in ratIF) were precipitated by addition of 300 μl precipitant (ACN / 2% acetic acid / 0.2% HFBA, (precipitation regent, PR)) containing internal standards (ISTD) to 150 μl sample. After incubation for 1 h at room temperature all samples were centrifuged for 10 min at 2,200×g (room temperature).
The target in the next data set is T1, human GLP2 receptor (Homo sapiens, UniProt O95838).
T1 construct: expressed in transfected cells; host or cells: HEK cells, BacMam virus transduction
T1 sequence (O95838 1-553): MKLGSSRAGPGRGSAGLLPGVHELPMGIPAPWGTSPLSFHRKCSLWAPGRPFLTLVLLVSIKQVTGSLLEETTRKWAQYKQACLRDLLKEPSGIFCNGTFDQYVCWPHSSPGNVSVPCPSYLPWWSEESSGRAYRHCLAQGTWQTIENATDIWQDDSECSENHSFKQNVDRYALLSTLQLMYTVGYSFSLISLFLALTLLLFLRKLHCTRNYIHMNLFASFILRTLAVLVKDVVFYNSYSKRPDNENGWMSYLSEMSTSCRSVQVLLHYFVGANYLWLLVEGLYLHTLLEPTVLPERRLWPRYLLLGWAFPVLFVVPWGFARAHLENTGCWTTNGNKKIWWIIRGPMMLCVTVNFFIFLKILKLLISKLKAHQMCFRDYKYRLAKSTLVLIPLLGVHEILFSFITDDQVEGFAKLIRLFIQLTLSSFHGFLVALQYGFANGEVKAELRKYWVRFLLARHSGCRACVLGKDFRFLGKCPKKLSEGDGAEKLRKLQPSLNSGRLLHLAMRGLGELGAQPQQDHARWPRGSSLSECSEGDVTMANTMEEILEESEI
Description: cAMP accumulation assay, functional agonism of human GLP2 receptor. The class given is cell-based. Conditions: HEK cells infected with human GLP2 receptor BacMam virus, HTRF cAMP; for Emax: HEK293, read-out: Human GLP-2R agonist cAMP Emax; for EC50: read-out: Human GLP-2R agonist cAMP pEC50 (converted). The procedure, abridged:
(§1)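 Agonist-driven cAMP production was quantified by homogeneous time-resolved fluorescence. Receptor expression in HEK cells came from a 24-hour BacMam infection, and cells were frozen ahead of the assay. Incubation lasted 45 min at 37° C in HBSS supplemented with 0.5 mM IBMX.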

The target in a further data set is T2, human GLP1 receptor (Homo sapiens, UniProt P43220).
T2 construct: expressed in transfected cells; host or cells: HEK cells, BacMam virus transduction
T2 sequence (P43220 24-463): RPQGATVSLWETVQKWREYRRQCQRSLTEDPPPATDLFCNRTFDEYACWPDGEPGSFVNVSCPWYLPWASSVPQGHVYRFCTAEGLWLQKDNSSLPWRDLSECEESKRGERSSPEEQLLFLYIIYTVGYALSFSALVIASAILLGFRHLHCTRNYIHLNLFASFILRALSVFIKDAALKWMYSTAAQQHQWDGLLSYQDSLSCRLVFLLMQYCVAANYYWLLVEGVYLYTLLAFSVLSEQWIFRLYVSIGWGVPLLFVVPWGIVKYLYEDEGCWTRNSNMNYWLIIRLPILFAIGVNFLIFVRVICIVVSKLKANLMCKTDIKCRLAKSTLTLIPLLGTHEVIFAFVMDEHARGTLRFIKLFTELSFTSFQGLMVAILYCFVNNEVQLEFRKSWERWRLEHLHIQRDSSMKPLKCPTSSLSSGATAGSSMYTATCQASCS
Description: cAMP accumulation assay, functional agonism of human GLP1 receptor. The class given is cell-based. Conditions: HEK cells infected with human GLP1 receptor BacMam virus, HTRF cAMP; for Emax: HEK293, read-out: Human GLP-1R agonist cAMP Emax; for EC50: read-out: Human GLP-1R agonist cAMP pEC50 (converted). The procedure, abridged:
as §1

Data set [3] in a line: Stability of peptides in Fasted-State Simulated Intestinal Fluid (FaSSIF). The class given is in vitro ADME. Conditions: FaSSIF with 10 mg/ml pancreatin; t=30 mins, 37° C., pH 6.5, 10 mg/ml pancreatin.
Another data set has as its target T3, mouse GLP2 receptor (Mus musculus, UniProt Q5IXF8).
T3 construct: expressed in transfected cells; host or cells: HEK cells, transient transfection with GeneJuice
T3 sequence (Q5IXF8 1-512): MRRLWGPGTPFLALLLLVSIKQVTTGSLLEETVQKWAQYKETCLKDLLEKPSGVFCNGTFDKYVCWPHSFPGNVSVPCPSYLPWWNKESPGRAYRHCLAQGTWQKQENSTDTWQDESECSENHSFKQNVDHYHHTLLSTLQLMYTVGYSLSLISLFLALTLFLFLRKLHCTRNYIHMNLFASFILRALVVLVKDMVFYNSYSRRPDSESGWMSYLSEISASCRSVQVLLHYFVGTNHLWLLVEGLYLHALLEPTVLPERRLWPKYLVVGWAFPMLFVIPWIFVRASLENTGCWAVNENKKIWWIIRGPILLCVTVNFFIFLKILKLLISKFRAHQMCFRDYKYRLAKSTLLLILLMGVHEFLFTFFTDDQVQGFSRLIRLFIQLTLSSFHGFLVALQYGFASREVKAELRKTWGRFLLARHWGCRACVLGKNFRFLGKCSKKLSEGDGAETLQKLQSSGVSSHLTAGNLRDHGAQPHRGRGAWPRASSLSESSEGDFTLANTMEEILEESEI
Nature of the data set: cAMP accumulation assay, functional agonism of mouse GLP2 receptor. The class given is cell-based. Conditions: HEK cells transiently transfected with mouse GLP2 receptor, HTRF cAMP; for Emax: HEK293, read-out: Mouse GLP-2R agonist cAMP Emax; for EC50: read-out: Mouse GLP-2R agonist cAMP pEC50 (converted). The procedure, abridged:
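pEC50 values come from four-parameter fits of HTRF cAMP signal, read after lysis and 1 h RT incubation. Compounds were incubated 45 min at 37 °C with previously frozen, transiently transfected HEK cells (8000/well) in HBSS containing 0.5 mM IBMX.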

Positions of bridges follow the written chain, without caps; N, C: chain ends. Non-standard residues stand in square brackets, D forms with d. Residues, ends and D or L forms follow the SMILES beside them. *: point of attachment. Malonyl(2,2-Me2,histaminyl) = CC(C)(C(=O)NCCc1cnc[nH]1)C(=O)*; Ala(1H-tetrazol-5-yl) = N[C@@H](Cc1nnn[nH]1)C(=O)O; αMePhe(2-F) = C[C@](N)(Cc1ccccc1F)C(=O)O; αMeL = CC(C)C[C@](C)(N)C(=O)O; Nle = CCCC[C@H](N)C(=O)O; Aib = CC(C)(N)C(=O)O

Regarding `CCCC[C@H](NC(=O)[C@H](CCC(=O)O)NC(=O)[C@@H]1CC(=O)NCCCC[C@H](NC(=O)[C@H](Cc2nn[nH]n2)NC(=O)C(C)(C)C(=O)NCCc2c[nH]cn2)C(=O)N[C@@H](CO)C(=O)N[C@@H](Cc2ccccc2)C(=O)N[C@@H](CO)C(=O)N1)C(=O)N[C@H](Cc1ccccc1)C(=O)N[C@H](C(=O)N[C@@](C)(CC(C)C)C(=O)N[C@@H](CC(C)C)C(=O)N[C@@H](CC(=O)O)C(=O)N[C@H]1CCC(=O)NCCCC[C@@H](C(=O)N[C@@H](CC(=O)O)C(=O)N[C@@H](Cc2ccccc2)C(=O)N[C@H](C(=O)N[C@H]2CCC(=O)NCCCC[C@@H](C(=O)N[C@H]3CCC(=O)NCCCC[C@@H](C(N)=O)NC(=O)[C@H]([C@@H](C)O)NC(=O)[C@H]([C@@H](C)CC)NC(=O)[C@H](CCCCN)NC3=O)NC(=O)[C@H]([C@@H](C)CC)NC(=O)[C@H](CC(C)C)NC(=O)[C@H](Cc3c[nH]c4ccccc34)NC2=O)[C@@H](C)CC)NC(=O)[C@H](C)NC(=O)[C@H](C)NC(=O)[C@H](CCCCN)NC1=O)[C@@H](C)O` [Example 45] ({Malonyl(2,2-Me2,histaminyl)}-[Ala(1H-tetrazol-5-yl)]KSFSDE[Nle][dF]T[αMeL]LDEKAAKDFIEWLIKEKITK-NH2; lactam 2-6, 14-18, 22-26, 27-31 (inferred); C-terminus assumed), the figures for the fraction remaining at 0.5 h in data set [1], in data set [2] and in data set [3] were 100%, 62.4% and 95.3%, respectively. The Emax at human GLP2 receptor worked out at 104%; on human GLP1 receptor, 96.5%. The EC50 at human GLP2 receptor was 50.1 pM; on human GLP1 receptor, 200 pM.

Consider `CCCC[C@@H]1NC(=O)[C@H](CCC(=O)O)NC(=O)[C@@H](NC(=O)[C@H](CO)NC(=O)[C@](C)(Cc2ccccc2F)NC(=O)[C@H](CO)NC(=O)[C@@H](C)NC(=O)[C@H](CC(=O)O)NC(=O)C(C)(C)NC(=O)[C@@H](N)Cc2c[nH]cn2)CCCCNC(=O)C[C@@H](C(=O)N[C@@](C)(CC(C)C)C(=O)N[C@@H](CC(C)C)C(=O)N[C@@H](CC(=O)O)C(=O)N[C@H]2CCC(=O)NCCCC[C@@H](C(=O)N[C@@H](CC(=O)O)C(=O)N[C@@H](Cc3ccccc3)C(=O)N[C@H](C(=O)N[C@H]3CCCCNC(=O)C[C@@H](C(=O)N[C@H]4CCC(=O)NCCCC[C@@H](C(N)=O)NC(=O)[C@H]([C@@H](C)O)NC(=O)[C@H]([C@@H](C)CC)NC(=O)[C@H](CCCCN)NC4=O)NC(=O)[C@H]([C@@H](C)CC)NC(=O)[C@H](CC(C)C)NC(=O)[C@H](Cc4c[nH]c5ccccc45)NC3=O)[C@@H](C)CC)NC(=O)[C@H](C)NC(=O)[C@H](C)NC(=O)[C@H](CCCCN)NC2=O)NC(=O)[C@@H](Cc2ccccc2)NC1=O` [Example 60] (H-H[Aib]D[dA]S[αMePhe(2-F)]SKE[Nle][dF]D[αMeL]LDEKAAKDFIKWLIDEKITK-NH2; lactam 8-12, 16-20, 24-28, 29-33 (inferred); C-terminus assumed), for which the Emax came out at 102% on mouse GLP2 receptor, 102% on human GLP2 receptor and 96.5% at human GLP1 receptor. Besides, the EC50 at mouse GLP2 receptor is 794 pM; on human GLP2 receptor it was 15.8 pM; on human GLP1 receptor, 158 pM. In addition, the results for the fraction remaining at 0.5 h in data set [1], in data set [2] and in data set [3] were 100%, 89.6% and 62.5%, respectively.

For the compound `CCCC[C@@H]1NC(=O)[C@H](CCC(=O)O)NC(=O)[C@@H](NC(=O)[C@H](CO)NC(=O)[C@H](Cc2ccccc2)NC(=O)[C@H](CO)NC(=O)[C@@H](C)NC(=O)[C@H](Cc2nn[nH]n2)NC(=O)C(C)(C)C(=O)NCCc2c[nH]cn2)CCCCNC(=O)C[C@@H](C(=O)N[C@H](C(=O)N[C@@H](CC(C)C)C(=O)N[C@@H](CC(=O)O)C(=O)N[C@H]2CCC(=O)NCCCC[C@@H](C(=O)N[C@@H](CC(=O)O)C(=O)N[C@@H](Cc3ccccc3)C(=O)N[C@H](C(=O)N[C@H]3CCCCNC(=O)C[C@@H](C(=O)N[C@H](C(=O)N[C@H]4CCC(=O)NCCCC[C@@H](C(N)=O)NC(=O)[C@H]([C@@H](C)O)NC(=O)[C@H]([C@@H](C)CC)NC4=O)[C@@H](C)O)NC(=O)[C@H]([C@@H](C)CC)NC(=O)[C@H](CC(C)C)NC(=O)[C@H](Cc4c[nH]c5ccccc45)NC3=O)[C@@H](C)CC)NC(=O)[C@H](C)NC(=O)[C@H](C)NC(=O)[C@H](CCCCN)NC2=O)[C@@H](C)CC)NC(=O)[C@@H](Cc2ccccc2)NC1=O` [Example 38] ({Malonyl(2,2-Me2,histaminyl)}-[Ala(1H-tetrazol-5-yl)][dA]SFSKE[Nle][dF]DILDEKAAKDFIKWLIDTEITK-NH2; lactam 6-10, 14-18, 22-26, 28-31 (inferred); C-terminus assumed), the Emax at mouse GLP2 receptor was 99%; at human GLP2 receptor, 105%; on human GLP1 receptor, 88.8%. Moreover, the EC50 is 3160 pM at mouse GLP2 receptor, 12.6 pM at human GLP2 receptor and 501 pM on human GLP1 receptor. Besides, the share remaining at 0.5 h is 100% in data set [1], 33.4% in data set [2] and 61.3% in data set [3].

As to `CCCC[C@@H]1NC(=O)[C@H](CCC(=O)O)NC(=O)[C@@H](NC(=O)[C@H](CO)NC(=O)[C@](C)(Cc2ccccc2F)NC(=O)[C@H](CO)NC(=O)[C@@H](C)NC(=O)[C@H](CC(=O)O)NC(=O)C(C)(C)NC(=O)[C@@H](N)Cc2c[nH]cn2)CCCCNC(=O)C[C@@H](C(=O)N[C@H](C(=O)N[C@@H](CC(C)C)C(=O)N[C@@H](CC(=O)O)C(=O)N[C@H]2CCC(=O)NCCCC[C@@H](C(=O)N[C@@H](CC(=O)O)C(=O)N[C@@H](Cc3ccccc3)C(=O)N[C@H](C(=O)N[C@H]3CCCCNC(=O)C[C@@H](C(=O)N[C@H]4CCC(=O)NCCCC[C@@H](C(N)=O)NC(=O)[C@H]([C@@H](C)O)NC(=O)[C@H]([C@@H](C)CC)NC(=O)[C@H](CCCCN)NC4=O)NC(=O)[C@H]([C@@H](C)CC)NC(=O)[C@H](CC(C)C)NC(=O)[C@H](Cc4c[nH]c5ccccc45)NC3=O)[C@@H](C)CC)NC(=O)[C@H](C)NC(=O)[C@H](C)NC(=O)[C@H](CCCCN)NC2=O)[C@@H](C)CC)NC(=O)[C@@H](Cc2ccccc2)NC1=O` [Example 59] (H-H[Aib]D[dA]S[αMePhe(2-F)]SKE[Nle][dF]DILDEKAAKDFIKWLIDEKITK-NH2; lactam 8-12, 16-20, 24-28, 29-33 (inferred); C-terminus assumed), the results for the Emax at mouse GLP2 receptor, at human GLP2 receptor and on human GLP1 receptor were 103%, 103% and 95.2%, respectively. The EC50 on mouse GLP2 receptor was 501 pM; on human GLP2 receptor, 20 pM; on human GLP1 receptor it was 200 pM. Besides, the results for the fraction remaining at 0.5 h in data set [1], in data set [2] and in data set [3] were 100%, 63.6% and 61.9%, respectively.
